Reference: US3981997A, “Analgesic compositions comprising 1H- or respectively 2H-indazolone-3 (β-morpholino-alkoxy) compounds” (Temmler Werke-Vereinigte Chemische Fabriken, priority 1970, dated 1976)
Where two headings read alike, the source gives them in different places.

Tests used:
mouse [1] = experiment: animal or person; settings: for ED50: Mus musculus; for Hot plate: relative therapeutic index (Th.I.) / Writhing Test: relative therapeutic index (Th.I.) / Writhing Test: mean effective dosage (ED50) / Hot plate: mean effective dosage (ED50): mouse; for Writhing Test: mean effective dosage (ED50) / Hot plate: mean effective dosage (ED50): relative to effective substance; for Writhing Test: mean effective dosage (ED50): 30 min; for Hot plate: mean effective dosage (ED50): 60 min
Description: The mice were kept without food during a period of 18 hours prior to the commencement of the tests. The test substances were administered orally in a methyl-cellulose-mucic (slime) by means of a probe. The observation period for the toxicity tests was 7 days. […] The pre-medication periods were 60 minutes in the first test arrangements. […] The percentage of the non-reacting animals was used to compute the ED50. […] Since the reaction times of the control group animals were log-normally distributed an analgetic effect was assumed in the treated animals if the logarithm of the reaction time of an animal was above the mean value range plus twice the standard deviation of the control group animals.

rat [2] = experiment: animal or person; assay type: in vivo
Description: According to Table II and with reference to the method described by A. HERZ (Naunyn-Schmiedeberg's Arch. Pharmakol., 242, 414, 1962) with rats by electrical stimulation of the root of the tail by means of continuously increasing the current a threshold of pain was determined which threshold was characterized in that the animals commenced to squeak in synchronism with the stimulation. When maintaining the selected test conditions these threshold values indicated as percent variations against the initial values prior to the treatment remained practically constant over a period of several hours in a test with control animals. Since these values are furthermore also normally distributed it is possible to quantitatively determine analgetic effects by determining the number of animals whose threshold values exceed during a test run the range defined by the mean value plus twice the standard deviation.
To determine the mean effective dosage ED50) determinations of the threshold of pain were made in 30 minute intervals with groups of 12 female rats each, each rat having a body weight from 160 to 360 grams, and these determinations were made prior to and after the treatment with at least 3 doses of the test substances which were administered orally in a 2 % methyl-cellulose-mucic by means of a probe. […] In this manner, not only the intensity but also the duration of the effect were taken into consideration when determining the ED50 since the analgesia must be sustained for at least 90 minutes.

[3] = Acute oral toxicity in the mouse (LD50, 7-day observation); assay type: in vivo; settings: in vivo, read-out: Mean lethal dosage (LD50)
[4] = Overall analgetic effect and compatability [sic]; settings: in vivo
rat [5] = assay type: in vivo
[6] = Acute oral toxicity in the rat (LD50); settings: in vivo
mouse [7] = experiment: Acute oral toxicity in the mouse (LD50, 7-day observation); assay type: in vivo; settings: Table I, relative to effective substance, 10080 min
[8] = po, 0.5 h, read-out: Writhing Test: mean effective dosage (ED50)
[9] = po, 1 h, read-out: Hot plate: mean effective dosage (ED50)
[10] = Table I, oral, LD10/ED90, relative to aminophenazone = 1,00
[11] = po, Table II, rat, p.o., relative to effective substance, read-out: Mean effective dosage (ED50), analgetic effect on rats
[12] = Table I, relative to effective substance
[13] = Table IV, rat, oral, read-out: Mean effective dosage (ED50), electrical stimulation of root of the tail (HERZ)
[14] = Table IV, oral, LD10/ED90, relative to aminophenazone = 1.00

Structure (SMILES)	ED50 (mouse [1]; [8])	ED50 (mouse [1]; [9])	Hot plate: relative therapeutic index (Th.I.) (mouse [1]; [10])	Writhing Test: relative therapeutic index (Th.I.) (mouse [1]; [10])	Relative effectivity, relative to aminophenazone = 1.00 (rat [2]; Table II, rat, p.o.)	ED50 (rat [2]; [11])	LD50 at 168 h [3, 12]	analgetic activity (in words) [4]	Hot plate: relative therapeutic index (Th.I.) (mouse [1]; in vivo, po)	Writhing Test: relative therapeutic index (Th.I.) (mouse [1]; in vivo, po)	ED50 (rat [2]; [13])	LD50 at 168 h ([3]; Table III)	relative therapeutic index (rat [5]; [14])	LD50 [6]	Writhing Test: mean effective dosage (ED50) (mouse [1]; Table I, oral)	Hot plate: mean effective dosage (ED50) (mouse [1]; Table I, oral)	Mean lethal dosage (LD50) (mouse [7])	relative therapeutic index (rat [5]; in vivo, po)	ED50 (rat [2]; Rattus norvegicus, po, read-out: Mean effective dosage (ED50), analgetic effect on rats)
Br.c1ccc2c(OCCN3CCOCC3)n[nH]c2c1 [3-(β-morpholino-ethoxy)-1H-indazole-hydrobromide]	46 mg/kg	142 mg/kg	3,53	1,30	6.84	34 mg/kg	615 mg/kg	Analgetically particularly active	–	–	–	–	–	–	–	–	–	–	–
c1ccc2c(OCCN3CCOCC3)n[nH]c2c1 [3-(β-morpholino-ethoxy)-1H-indazole]	–	–	–	–	–	–	–	Analgetically particularly active	–	–	–	–	–	–	–	–	–	–	–
Br.C1CCc2c(n[nH]c2OCCN2CCOCC2)C1 [3-(β-morpholino-ethoxy)-4,5,6,7-tetrahydro-2H-indazole-hydrobromide]	–	–	–	–	–	–	–	Analgetically particularly active	–	–	–	–	–	–	–	–	–	–	–
C1CCc2c(n[nH]c2OCCN2CCOCC2)C1 [3-(β-morpholino-ethoxy)-4,5,6,7-tetrahydro-2H-indazole]	94 mg/kg	540 mg/kg	–	–	–	–	–	–	2.67	2.07	143 mg/kg	1720 mg/kg	1.62	1600 mg/kg	–	–	–	–	–
c1ccc2c(OCCCN3CCOCC3)n[nH]c2c1 [3-(γ-morpholino-propoxy)-1H-indazole]	–	–	–	–	–	–	–	Analgetically particularly active	–	–	–	–	–	–	–	–	–	–	–
CC(=O)Oc1ccccc1C(=O)O [acetylsalicylate]	107 mg/kg	500 mg/kg	1,67	0,80	0.67	–	–	–	1.88	0.91	340 mg/kg	835 mg/kg	0.28	1400 mg/kg	107 mg/kg body weight	500 mg/kg body weight	835 mg/kg body weight	–	–
Cc1c(N(C)C)c(=O)n(-c2ccccc2)n1C [aminophenazone]	50 mg/kg	283 mg/kg	1,00	1,00	1.00	–	–	–	1.00	1.00	229 mg/kg	550 mg/kg	–	1350 mg/kg	50 mg/kg body weight	283 mg/kg body weight	550 mg/kg body weight	1.00	–
COc1ccc2c3c1O[C@H]1[C@@H](O)C=C[C@H]4[C@@H](C2)N(C)CC[C@@]341 [codeine phosphate]	14 mg/kg	115 mg/kg	1,49	1,92	10.50	–	265 mg/kg	–	–	–	–	–	–	–	–	–	–	–	22 mg/kg
CCOc1ccc(NC(C)=O)cc1 [phenacetine]	107 mg/kg	530 mg/kg	1,71	0,66	1.86	123 mg/kg	–	–	1.93	0.74	–	1250 mg/kg	–	–	107 mg/kg body weight	530 mg/kg body weight	1250 mg/kg body weight	–	–
